Laboratory results taken from the NIST ThermoML archive (doi:10.1016/j.tca.2008.05.004).

Conditions: 101.33 kPa, Crystal; for molar entropy: Small (less than 1 g) adiabatic calorimetry

O=P([O-])([O-])[O-].[La+3] [lanthanum orthophosphate]
Conditions	molar entropy [J/K/mol]
2 K	0.00041
4 K	0.00372
6 K	0.01262
8 K	0.0291
10 K	0.0561
12 K	0.09746
14 K	0.1576
16 K	0.2412
18 K	0.3527
20 K	0.4961
25 K	1.015
30 K	1.776
35 K	2.783
40 K	4.024
45 K	5.479
50 K	7.119
60 K	10.84
70 K	14.97
80 K	19.34
90 K	23.86
100 K	28.43
110 K	33.01
120 K	37.56
130 K	42.08
140 K	46.55
150 K	50.59
160 K	55.29
170 K	59.57
180 K	63.77
190 K	67.91
200 K	71.98
210 K	75.99
220 K	79.93
230 K	83.81
240 K	87.62
250 K	91.37
260 K	95.06
270 K	98.69
280 K	102.3
290 K	105.8
300 K	109.2
320 K	116
340 K	122.5
360 K	128.8
373 K	132.9
400 K	141
450 K	155.1
500 K	168.2
550 K	180.3
600 K	191.7
650 K	202.4
700 K	212.6
750 K	222.1
800 K	231.3
850 K	240
900 K	248.3
950 K	256.3
1000 K	263.9
1050 K	271.3
1100 K	278.5
1150 K	285.4
1200 K	292.1
1250 K	298.6
1300 K	305
1350 K	311.1
1400 K	317.1
1450 K	323
1500 K	328.7
1550 K	334.3
1600 K	339.8

Conditions	mass density [kg/m3]
293 K, X-ray diffraction	5076
